Like-named read-outs stand apart in the source and are kept apart here.
Assays:
[1] = system: blood circulation of dogs; assay: Effect on blood circulation (arterial blood pressure, heart rate, contractility dp/dt max) in anesthetized dogs; format: in vivo; details: for Decrease of contractility, duration / inhibition in vivo at 1 mg/kg / inhibition in vivo at 0.25 mg/kg: left ventricle; for inhibition in vivo at 1 mg/kg / inhibition in vivo at 0.25 mg/kg: Canis lupus familiaris, iv, read-out: Decrease of contractility dp/dt max.
Protocol: (1.) Effect on blood circulation: The blood circulation tests were performed on dogs with a body weight of 19-30 kg under chloralose-urethane-nembutalanesthesia (54+270+10 mg/kg i.v.). After opening the thorax in the 4th left intercostal space, artificial respiration was applied to the animals with room air by means of an Harvard-Respirator. The arterial blood-pressure was measured in an arteria carotis with a Statham-transducer; the heart rate was measured electronically from the sequence of R-peaks of the electrocardiogram. The maximum rate of pressure increase (dp/dt max) in the left ventricle was measured by means of a Konigsberg pressure-receiver and a Grass differentiation amplifier. All parameters were recorded by means of a direct-writer. For inhibition of coagulation the animals were given 10 mgm/kg of potassium polyethylenesulfonate i.v. in 20% of polydiol. The test compounds were intravenously administered to 4-6 dogs per compound.

[2] = system: isolated guinea pig auricle; assay: effect on the force of contraction and frequency of the isolated guinea pig auricle; details: Cavia porcellus, 37° C.; for inhibition at 30 µg/mL: 3.10^-5 gm/ml; for inhibition at 100 µg/mL: 10^-4 gm/ml; for inhibition at 10 µg/mL: 10^-5 gm/ml; for inhibition at 3 µg/mL: 3.10^-6 gm/ml
Protocol: (2.) effect on the force of contraction and frequency of the isolated guinea pig auricle
In spontaneously beating isolated auricles of guinea pigs, which were kept in carbogen-aerated ([…] +5% CO2) Krebs-Henseleit-solution at a temperature of 37° C., and at predetermined concentrations of the test compounds, the maximum developed tension (isometric force of contraction) and the frequency were measured: […]

in vivo = details: mouse, mice, observation period 14 days
Protocol: (3.) determination of acute toxicity
The acute toxicity of the test compounds was determined in mice (observation period: 14 days) after oral or intravenous administration. The LD50 was calculated from the percentage of the animals that dies during the observation period after administration of varying doses: […]

[3] = read-out: Decrease in frequency
[4] = read-out: Decrease in maximum force of contraction

| Structure (SMILES) | Decrease in heart rate ([1]; 1.0 mgm/kg i.v.) [beats/min] | Decrease in heart rate, duration ([1]; 1.0 mgm/kg i.v.) [min] | Effect on average arterial blood pressure ([1]; 1.0 mgm/kg i.v.) [mm Hg] | Effect on average arterial blood pressure, duration ([1]; 1.0 mgm/kg i.v.) [min] | Decrease of contractility, duration ([1]; 1.0 mgm/kg i.v.) [min] | inhibition in vivo at 1 mg/kg ([1]; 1.0 mgm/kg i.v.) [%] | inhibition at 30 µg/mL [2, 3] [%] | inhibition at 30 µg/mL [2, 4] [%] | LD50 at 336 h (in vivo; iv) [mg/kg] | inhibition at 10 µg/mL [2, 3] [%] | inhibition at 10 µg/mL [2, 4] [%] | other results |
| --- | --- | --- | --- | --- | --- | --- | --- | --- | --- | --- | --- | --- |
| COc1ccc2cc(CCc3ccc(OCC(O)CNC(C)C)cc3)n(C)c(=O)c2c1 (stereo not drawn) [H, 2-methyl-3-[4-(2-hydroxy-3-isopropylamino-propoxy)-phenethyl]-7-methoxy-isoquinolin-1 (2H)-one] | 34 ± 10 | 47 | -25 ± 15 | 20 | 47 | 53 ± 13 |  |  |  |  |  |  |
| COc1ccc(-c2cc3ccc(OC)cc3c(=O)n2C)c(OCC(O)CNC(C)(C)C)c1 (stereo not drawn) [D, 2-methyl-3-[2-(2-hydroxy-3-tert. butylamino-propoxy)-4-methoxy-phenyl]-7-methyoxy-isoquinoline-1 (2H)-one-oxalate] |  |  |  |  |  |  | 40 | 64 |  |  |  | Decrease in heart rate ([1]; 0.25 mgm/kg i.v.): 15 ± 5 beats/min; Decrease in heart rate, duration ([1]; 0.25 mgm/kg i.v.): 27 min; Effect on average arterial blood pressure ([1]; 0.25 mgm/kg i.v.): -6 ± 3 mm Hg; Effect on average arterial blood pressure, duration ([1]; 0.25 mgm/kg i.v.): 24 min; Decrease of contractility, duration ([1]; 0.25 mgm/kg i.v.): 28 min; inhibition in vivo at 0.25 mg/kg ([1]; 0.25 mgm/kg i.v.): 36 ± 13% |
| COc1cc2cc(-c3ccc(OCC(O)CNC(C)(C)C)cc3)n(C)c(=O)c2cc1OC (stereo not drawn) [E, 2-methyl-3-[4-(2-hydroxy-3-tert. butylamino-propoxy)-phenyl]-6,7-dimethoxy-isoquinolin-1 (2H)-one] | 25 ± 6 | 51 | -18 ± 11 | 11 | 51 | 52 ± 8 | 31 | 54 |  |  |  | inhibition at 100 µg/mL [2, 3]: 46%; inhibition at 100 µg/mL [2, 4]: 72% |
| COc1ccc2cc(-c3ccccc3OCC(O)CNC(C)C)n(C)c(=O)c2c1.O=C(O)C(=O)O (stereo not drawn) [B, 2-methyl-3-[2-(2-hydroxy-3-isopropylamino-propoxy)-phenyl]-7-methoxy-isoquinolin-1 (2H)-one-oxalate] | 19 ± 6 | 50 | -24 ± 2 | 41 | 47 | 51 ± 7 |  |  | 47 |  |  |  |
| COc1ccc2cc(-c3ccc(OCC(O)CNC(C)(C)C)cc3)n(C)c(=O)c2c1 (stereo not drawn) [A, 2-methyl-3-[4-(2-hydroxy-3-tert. butylamino-propoxy)-phenyl]-7-methoxy-isoquinolin-1 (2H)-one] | 29 ± 15 | 36 | -20 ± 2 | 50 | 44 | 50 ± 10 | 30 | 82 | 62 | 23 | 50 | LD50 at 336 h (in vivo; po): 460 mg/kg |
| COc1ccc2cc(-c3ccc(OCC(O)CNC(C)C)c(OC)c3)n(C)c(=O)c2c1 (stereo not drawn) [G, 2-methyl-3-[3-methoxy-4-(2-hydroxy-3-isopropylamino-propoxy)-phenyl]-7-methoxy-isoquinolin-1 (2H)-one] |  |  |  |  |  |  | 37 | 48 |  | 22 | 35 | Decrease in heart rate ([1]; 0.25 mgm/kg i.v.): 37 ± 5 beats/min; Decrease in heart rate, duration ([1]; 0.25 mgm/kg i.v.): 54 min; Effect on average arterial blood pressure ([1]; 0.25 mgm/kg i.v.): -3 ± 2 mm Hg; Effect on average arterial blood pressure, duration ([1]; 0.25 mgm/kg i.v.): 20 min; Decrease of contractility, duration ([1]; 0.25 mgm/kg i.v.): 48 min; inhibition in vivo at 0.25 mg/kg ([1]; 0.25 mgm/kg i.v.): 48 ± 6% |
| COc1cc2cc(-c3ccc(OCC(O)CNC(C)C)cc3)n(C)c(=O)c2cc1OC (stereo not drawn) [F, 2-methyl-3-[4-(2-hydroxy-3-isopropylamino-propoxy)-phenyl]-6,7-dimethoxy-isoquinolin-1 (2H)-one] | 12 ± 6 | 31 | -7 ± 3 | 17 | 43 | 33 ± 6 | 29 | 43 |  | 22 | 30 |  |
| COc1ccc(-c2cc3ccc(OC)cc3c(=O)n2C)c(OCC(O)CNC(C)C)c1.O=C(O)C(=O)O (stereo not drawn) [C, 2-methyl-3-[2-(2-hydroxy-3-isopropylamino-propoxy)-4-methoxy-phenyl]-7-methoxy-isoquinolin-1 (2H)-one-oxalate] | 38 ± 2 | 50 | -17 ± 3 | 40 | 50 | 53 ± 6 |  |  | 50 | 29 | 29 | inhibition at 3 µg/mL [2, 3]: 15%; inhibition at 3 µg/mL [2, 4]: 17%; LD50 at 336 h (in vivo; po): 500 mg/kg |
